# Where a name gives a salt, the structure may show the parent alone.
# Tested on: not given
# Assay: not given
# Details: not given
row,Compound,melting point
1,O=S(=O)(c1ccccc1)n1cc(Br)c2c(N3CCNCC3)cccc21 (as salt: hydrochloride) [1-benzenesulfonyl-3-bromo-4-piperazin-1-yl-1H-indole],304 to 305 °C
2,O=S(=O)(c1ccc(Cl)cc1)n1ccc2c(N3CCNCC3)cccc21 (as salt: trifluoroacetate) [1-(4-chloro-benzenesulfonyl)-4-piperazin-1-yl-1H-indole],193 to 194 °C
3,COc1cccc(S(=O)(=O)n2ccc3c(N4CCNCC4)cccc32)c1 (as salt: trifluoroacetate) [1-(3-methoxy-benzenesulfonyl)-4-piperazin-1-yl-1H-indole],221 °C (dec.)
4,"O=S(=O)(c1cc(Cl)cc(Cl)c1)n1ccc2c(N3CCNCC3)cccc21 (as salt: hydrochloride) [1-(3,5-Dichloro-benzenesulfonyl)-4-piperazin-1-yl-1H-indole]",156 to 157 °C
5,N#Cc1cccc(S(=O)(=O)n2ccc3c(N4CCNCC4)cccc32)c1 (as salt: trifluoroacetate) [3-(4-piperazin-1-yl-indole-1-sulfonyl)-benzonitrile],238 °C (dec.)
6,O=S(=O)(c1cccs1)n1ccc2c(N3CCNCC3)cccc21 (as salt: trifluoroacetate) [4-piperazin-1-yl-1-(thiophene-2-sulfonyl)-1H-indole],208 to 209 °C

# The next lines start with the values.
row,melting point,Compound
1,231 to 232 °C (dec.),CC(C)(C)c1ccc(S(=O)(=O)n2ccc3c(N4CCNCC4)cccc32)cc1 (as salt: trifluoroacetate) [1-(4-ter-butyl-benzenesulfonyl)-4-piperazin-1-yl-1H-indole]
2,172 to 173 °C (dec.),CS(=O)(=O)c1ccc(F)c(S(=O)(=O)n2ccc3c(N4CCNCC4)cccc32)c1 (as salt: trifluoroacetate) [1-(2-fluoro-5-methanesulfonyl-benzenesulfonyl)-4-piperazin-1-yl-1H-indole]
3,230 to 231 °C,Cn1cnc(S(=O)(=O)n2ccc3c(N4CCNCC4)cccc32)c1 (as salt: trifluoroacetate)
4,223 to 224 °C,O=S(=O)(c1c(F)cccc1F)n1ccc2c(N3CCNCC3)cccc21 (as salt: trifluoroacetate)
5,158 to 159 °C,O=S(=O)(c1cccc(Br)c1)n1ccc2c(N3CCNCC3)cccc21 (as salt: hydrochloride)
6,256 to 257 °C,O=S(=O)(c1cccc(C(F)(F)F)c1)n1ccc2c(N3CCNCC3)cccc21 (as salt: hydrochloride) [4-piperazin-1-yl-1-(3-trifluoromethyl-benzenesulfonyl)-1H-indole]
7,171 °C,CS(=O)(=O)c1ccccc1S(=O)(=O)n1ccc2c(N3CCNCC3)cccc21 (as salt: trifluoroacetate) [1-(2-methanesulfonyl-benzenesulfonyl)-4-piperazin-1-yl-1H-indole]
8,234 to 235 °C (dec.),CS(=O)(=O)c1ccc(S(=O)(=O)n2ccc3c(N4CCNCC4)cccc32)cc1 (as salt: trifluoroacetate) [1-(4-methanesulfonyl-benzenesulfonyl)-4-piperazin-1-yl-1H-indole]
9,203 to 204 °C,O=S(=O)(c1ccc(F)cc1)n1ccc2c(N3CCNCC3)cccc21 (as salt: hydrochloride) [1-(4-fluoro-benzenesulfonyl)-4-piperazin-1-yl-1H-indole]
10,151 to 152 °C,CN1CCN(c2cccc3c2ccn3S(=O)(=O)c2ccc(F)cc2)CC1 (as salt: hydrochloride) [1-(4-fluoro-benzenesulfonyl)-4-(4-methyl-piperazin-1-yl)-1H-indole]
11,173 to 174 °C,CCCS(=O)(=O)c1cccc(S(=O)(=O)n2ccc3c(N4CCNCC4)cccc32)c1 (as salt: trifluoroacetate) [4-piperazin-1-yl-1-[3-(propane-1-sulfonyl)-benzenesulfonyl]-1H-indole]

# Target: T1, recombinant human 5-HT6 receptor (Homo sapiens, UniProt P50406)
# T1 construct: expressed in transfected cells; cell membranes used
# Assay: Radioligand binding studies: competition for [3H]LSD binding in membranes of HEK293 cells
# Details: [3H]LSD (5 nM), HEK293 cell membranes, 60 min at 37° C., pH 7.4
# Method: The pharmacology of the compounds of this invention was determined by art recognized procedures.
# The binding activity of compounds of this invention in vitro was determined as follows.
# Duplicate determinations of ligand affinity are made by competing for binding of [3H]LSD in cell membranes derived from HEK293 cells stably expressing recombinant human 5-HT6 receptor.
# All determinations are made in assay buffer containing 50 mM Tris-HCl, 10 mM MgSO4, 0.5 mM EDTA, 1 mM ascorbic acid, pH 7.4 at 37° C., in a 250 microliter reaction volume. Assay tubes containing [3H] LSD (5 nM), competing ligand, and membrane are incubated in a shaking water bath for 60 min. at 37° C., filtered onto Packard GF-B plates (pre-soaked with 0.3% PEI) using a Packard 96 well cell harvester and washed 3 times in ice cold 50 mM Tris-HCl. Bound [3H] LSD is determined as radioactive counts per minute using Packard TopCount.
# Displacement of [3H]LSD from the binding sites was quantified by fitting concentration-binding data to a 4-parameter logistic equation: [formula]
# where Hill is the Hill slope, [ligand] is the concentration of competing radioligand and IC50 is the concentration of radioligand producing half-maximal specific binding of radioligand. The specific binding window is the difference between the Bmax and the basal parameters.
# T1 sequence (P50406 whole entry): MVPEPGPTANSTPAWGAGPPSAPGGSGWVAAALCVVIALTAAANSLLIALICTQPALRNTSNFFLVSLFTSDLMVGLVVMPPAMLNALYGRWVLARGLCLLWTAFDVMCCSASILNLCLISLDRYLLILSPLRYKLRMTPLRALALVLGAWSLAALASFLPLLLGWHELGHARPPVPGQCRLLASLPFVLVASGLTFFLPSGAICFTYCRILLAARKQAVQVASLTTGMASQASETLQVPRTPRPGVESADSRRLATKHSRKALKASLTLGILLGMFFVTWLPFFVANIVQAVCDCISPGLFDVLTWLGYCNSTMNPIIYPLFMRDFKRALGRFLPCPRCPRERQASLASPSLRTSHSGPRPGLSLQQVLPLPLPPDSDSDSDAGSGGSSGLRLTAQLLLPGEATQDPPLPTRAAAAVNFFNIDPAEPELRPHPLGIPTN
Compound,Ki,pKi
COc1cccc(S(=O)(=O)n2ccc3c(N4CCNCC4)cccc32)c1 [1-(3-methoxy-benzenesulfonyl)-4-piperazin-1-yl-1H-indole],0.372 nM,
"O=S(=O)(c1cc(Cl)cc(Cl)c1)n1ccc2c(N3CCNCC3)cccc21 [1-(3,5-Dichloro-benzenesulfonyl)-4-piperazin-1-yl-1H-indole]",0.372 nM,
O=S(=O)(c1cccc(Cl)c1)n1ccc2c(N3CCNCC3)cccc21 [1-(3-chloro-benzenesulfonyl)-4-piperazin-1-yl-1H-indole],0.11 nM,
O=S(=O)(c1cccc(F)c1)n1ccc2c(N3CCNCC3)cccc21 [1-(3-fluoro-benzenesulfonyl)-4-piperazin-1-yl-1H-indole],0.155 nM,
O=S(=O)(c1ccc(Cl)cc1)n1ccc2c(N3CCNCC3)cccc21 [1-(4-chloro-benzenesulfonyl)-4-piperazin-1-yl-1H-indole],0.537 nM,
O=S(=O)(c1cccs1)n1ccc2c(N3CCNCC3)cccc21 [4-piperazin-1-yl-1-(thiophene-2-sulfonyl)-1H-indole],0.447 nM,
CN(C)S(=O)(=O)c1cccc(S(=O)(=O)n2ccc3c(N4CCNCC4)cccc32)c1 [NN-dimethyl-3-(4-piperazin-1-yl-indole-1-sulfonyl)-benzenesulfonamide],,8.69
O=S(=O)(c1ccccc1)n1cc(Br)c2c(N3CCNCC3)cccc21 [1-benzenesulfonyl-3-bromo-4-piperazin-1-yl-1H-indole],0.123 nM,
O=S(=O)(c1cnc(Cl)c(Br)c1)n1ccc2c(N3CCNCC3)cccc21 [1-(5-bromo-6-chloro-pyridine-3-sulfonyl)-4-piperazin-1-yl-1H-indole],5.62 nM,
COc1ccc(S(=O)(=O)n2ccc3c(N4CCNCC4)cccc32)cc1 [1-(4-Methoxy-benzenesulfonyl)-4-piperazin-1-yl-1H-indole],0.447 nM,
O=S(=O)(c1ccccc1F)n1ccc2c(N3CCNCC3)cccc21 [1-(2-fluoro-benzenesulfonyl)-4-piperazin-1-yl-1H-indole],0.0525 nM,
N#Cc1cccc(S(=O)(=O)n2ccc3c(N4CCNCC4)cccc32)c1 [3-(4-piperazin-1-yl-indole-1-sulfonyl)-benzonitrile],1.12 nM,
"O=S(=O)(c1cc(Cl)ccc1Cl)n1ccc2c(N3CCNCC3)cccc21 [1-(2,5-dichloro-benzenesulfonyl)-4-piperazin-1-yl-1H-indole]",0.151 nM,

# Further lines, with some results ahead:
Ki,Compound,pKi
7.59 nM,CS(=O)(=O)c1cc(Br)cc(S(=O)(=O)n2ccc3c(N4CCNCC4)cccc32)c1 [1-(3-bromo-5-methanesulfonyl-benzenesulfonyl)-4-piperazin-1-yl-1H-indole],
13.8 nM,CS(=O)(=O)c1ccc(F)c(S(=O)(=O)n2ccc3c(N4CCNCC4)cccc32)c1 [1-(2-fluoro-5-methanesulfonyl-benzenesulfonyl)-4-piperazin-1-yl-1H-indole],
1.91 nM,CC(C)CS(=O)(=O)c1cccc(S(=O)(=O)n2ccc3c(N4CCNCC4)cccc32)c1 [1-[3-(2-methyl-propane-1-sulfonyl)-benzenesulfonyl]-4-piperazin-1-yl-1H-indole],
0.832 nM,CN1CCN(c2cccc3c2ccn3S(=O)(=O)c2ccc(F)cc2)CC1 [1-(4-fluoro-benzenesulfonyl)-4-(4-methyl-piperazin-1-yl)-1H-indole],
0.933 nM,"COc1ccc(OC)c(S(=O)(=O)n2ccc3c(N4CCNCC4)cccc32)c1 [1-(2,5-dimethoxy-benzenesulfonyl)-4-piperazin-1-yl-1H-indole]",
0.2 nM,O=S(=O)(c1cccc(C(F)(F)F)c1)n1ccc2c(N3CCNCC3)cccc21 [4-piperazin-1-yl-1-(3-trifluoromethyl-benzenesulfonyl)-1H-indole],
0.158 nM,O=S(=O)(c1cccc2ccccc12)n1ccc2c(N3CCNCC3)cccc21 [1-(Naphthalene-1-sulfonyl)-4-piperazin-1-yl-1H-indole],
3.55 nM,CC(C)(C)c1ccc(S(=O)(=O)n2ccc3c(N4CCNCC4)cccc32)cc1 [1-(4-ter-butyl-benzenesulfonyl)-4-piperazin-1-yl-1H-indole],
1.55 nM,CCS(=O)(=O)c1cccc(S(=O)(=O)n2ccc3c(N4CCNCC4)cccc32)c1 [1-(3-ethanesulfonyl-benzenesulfonyl)-4-piperazin-1-yl-1H-indole],
1.26 nM,O=S(=O)(NC1CC1)c1cccc(S(=O)(=O)n2ccc3c(N4CCNCC4)cccc32)c1 [N-cyclopropyl-3-(4-piperazin-1-yl-indole-1-sulfonyl)-benzenesulfonamide],
16.6 nM,CS(=O)(=O)c1ccccc1S(=O)(=O)n1ccc2c(N3CCNCC3)cccc21 [1-(2-methanesulfonyl-benzenesulfonyl)-4-piperazin-1-yl-1H-indole],
2.69 nM,CS(=O)(=O)c1cccc(S(=O)(=O)n2ccc3c(N4CCNCC4)cccc32)c1 [1-(3-methanesulfonyl-benzenesulfonyl)-4-piperazin-1-yl-1Hindole],
1.55 nM,CCCS(=O)(=O)c1cccc(S(=O)(=O)n2ccc3c(N4CCNCC4)cccc32)c1 [4-piperazin-1-yl-1-[3-(propane-1-sulfonyl)-benzenesulfonyl]-1H-indole],
42.7 nM,CS(=O)(=O)c1ccc(S(=O)(=O)n2ccc3c(N4CCNCC4)cccc32)cc1 [1-(4-methanesulfonyl-benzenesulfonyl)-4-piperazin-1-yl-1H-indole],
